# Experimental data published in patent US12338237B2, “Derivatives having 1,2,3,4-tetrahydronaphthalene moiety or pharmaceutically acceptable salt thereof and pharmaceutical compositions comprising the same” (YUHAN CORPORATION, priority 2019, dated 2025).
# Like-named read-outs stand apart in the source and are kept apart here.
# Assays:
# [1] = target: glucosylceramide synthase (GCS) (Homo sapiens (Human), UniProt Q16739); assay: Evaluation of inhibitory activities against GCS (enzyme reaction with A549 cell lysate, NBD C6-ceramide, HPLC fluorescence); format: biochemical; conditions: GCS activity in A549 cell lysate, 37° C. for 90 minutes
# Method: Ibiglustat, known as a GCS inhibitor, was used as a control.
# After the cells attached to the culture dish were washed with phosphate buffered saline (PBS), the cells were scraped off with a cell scraper and then centrifuged (4000 rpm, 3 min, 4° C.) to collect the cells in a 50 ml tube. The cell pellets were suspended in a lysis buffer (50 mM HEPES, pH 7.3, containing 1× the protease/phosphatase inhibitor cocktail), lysed by sonication, and then the lysate was centrifuged (13000 rpm, 10 min, 4° C.). The obtained supernatant was used for the quantitative analysis of proteins. The amount of proteins was measured using the BCA protein assay kit, using bovine serum albumin as a standard.
# Enzymatic reactions were initiated by sequentially adding the following reaction materials to a 96 deep-well plate. Thereafter, the enzymatic reactions were performed at 37° C. for 90 minutes.
# The enzymatic reactions were stopped by adding 100 μl of chloroform/methanol (2:1, v/v). After vortexing for 15 seconds, each mixture was centrifuged (4000 rpm, 10 min, 18° C.). The lower layer (50 μl) was transferred to a new 96 deep-well plate and dried with a reduced concentrator.
# Data analysis was performed by the following equations. % Area (Sample)=Area (GlcCer)/[Area (Cer)+Area (GlcCer)]×100 % GCS activity=[Area(Sample)−Area(ibiglustat)]/[Area(DMSO)−Area(ibiglustat)]×100
# GM1 production = assay: cells; format: cell-based
# glucosylceramide synthase (GCS), sequence (Q16739 whole entry, looked up): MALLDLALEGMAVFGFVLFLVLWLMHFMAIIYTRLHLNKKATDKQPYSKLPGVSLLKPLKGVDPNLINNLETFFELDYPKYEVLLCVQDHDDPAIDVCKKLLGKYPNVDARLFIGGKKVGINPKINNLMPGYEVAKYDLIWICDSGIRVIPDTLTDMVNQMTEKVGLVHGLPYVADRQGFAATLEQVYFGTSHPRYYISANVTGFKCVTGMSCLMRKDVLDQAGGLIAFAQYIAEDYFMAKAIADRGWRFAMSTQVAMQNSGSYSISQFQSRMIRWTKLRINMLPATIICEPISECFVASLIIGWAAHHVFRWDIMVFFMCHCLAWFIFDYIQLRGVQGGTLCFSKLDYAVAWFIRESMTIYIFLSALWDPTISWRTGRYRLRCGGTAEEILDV
Compound,IC50 [1] [nM],"IC50 (GM1 production; Homo sapiens, Jurkat, 72 h) [nM]",IC50 (GM1 production; read-out: IC50) [nM]
"COCCOc1ccc(-c2ccc3c(c2)C(NC(=O)O[C@@H]2CN4CCC2CC4)C(C)(C)CC3)cc1 (stereo partly drawn) [Example 165, (S)-quinuclidin-3-yl (7-(4-(2-methoxyethoxy)phenyl)-2,2-dimethyl-1,2,3,4-tetrahydronaphthalen-1-yl)carbamate]",18.4,24.3,–
"COCCOc1cccc(-c2ccc3c(c2)CCCC3NC(=O)O[C@@H]2CN3CCC2CC3)c1 (stereo partly drawn) [Example 27, (S)-quinuclidin-3-yl (6-(3-(2-methoxyethoxy)phenyl)-1,2,3,4-tetrahydronaphthalen-1-yl)carbamate]",2.49,30.3,–
"O=C(NC1c2ccc(-c3cccc(C(F)F)c3)cc2CCC12CC2)O[C@@H]1CN2CCC1CC2 (stereo partly drawn) [Example 206, (S)-quinuclidin-3-yl (6′-(3-(difluoromethyl)phenyl)-3′,4′-dihydro-1′H-spiro[cyclopropane-1,2′-naphthalen]-1′-yl)carbamate]",10.2,15.2,–
"CC(C)Cc1ccc(-c2ccc3c(c2)CCCC3NC(=O)O[C@@H]2CN3CCC2CC3)cc1 (stereo partly drawn) [Example 35, (S)-quinuclidin-3-yl (6-(4-isobutylphenyl)-1,2,3,4-tetrahydronaphthalen-1-yl)carbamate]",9.16,265,–
O=C(NC1CCCc2ccc(-c3ccccc3F)cc21)O[C@@H]1CN2CCC1CC2 (stereo partly drawn) [Example 61],8.48,–,61.9
"O=C(NC1CCCc2cc(-c3ccc4c(c3)OCCO4)ccc21)O[C@@H]1CN2CCC1CC2 (stereo partly drawn) [Example 43, (S)-quinuclidin-3-yl (6-(2,3-dihydrobenzo[b][1,4]dioxin-6-yl)-1,2,3,4-tetrahydronaphthalen-1-yl)carbamate]",6.06,616,–
"CC(C)Oc1ccccc1-c1ccc2c(c1)C(NC(=O)O[C@@H]1CN3CCC1CC3)CCC2 (stereo partly drawn) [Example 78, (S)-quinuclidin-3-yl (7-(2-isopropoxyphenyl)-1,2,3,4-tetrahydronaphthalen-1-yl)carbamate]",30.1,230,–
"O=C(NC1CCCc2cc(-c3ccc(F)cc3F)ccc21)O[C@@H]1CN2CCC1CC2 (stereo partly drawn) [Example 18, (S)-quinuclidin-3-yl (6-(2,4-difluorophenyl)-1,2,3,4-tetrahydronaphthalen-1-yl)carbamate]",5.41,99.2,–
"CC1(C)CCc2cc(-c3cc(Cl)ccc3Cl)ccc2C1NC(=O)O[C@@H]1CN2CCC1CC2 (stereo partly drawn) [Example 105, (S)-quinuclidin-3-yl (6-(2,5-dichlorophenyl)-2,2-dimethyl-1,2,3,4-tetrahydronaphthalen-1-yl)carbamate]",1.39,0.21,–
"CN(C)c1cccc(-c2ccc3c(c2)CCC(C)(C)C3NC(=O)O[C@@H]2CN3CCC2CC3)c1 (stereo partly drawn) [Example 131, (S)-quinuclidin-3-yl (6-(3-(dimethylamino)phenyl)-2,2-dimethyl-1,2,3,4-tetrahydronaphthalen-1-yl)carbamate]",1.49,2.3,–
"COc1cccc(-c2ccc3c(c2)CCC2(CC2)C3NC(=O)O[C@@H]2CN3CCC2CC3)c1 (stereo partly drawn) [Example 216, (S)-quinuclidin-3-yl (6′-(3-methoxyphenyl)-3′,4′-dihydro-1′H-spiro[cyclopropane-1,2′-naphthalen]-1′-yl) carbamate]",12.2,–,115
"CCCOc1ccc(-c2ccc3c(c2)C(NC(=O)O[C@@H]2CN4CCC2CC4)CCC3)cc1 (stereo partly drawn) [Example 82, (S)-quinuclidin-3-yl (7-(4-propoxyphenyl)-1,2,3,4-tetrahydronaphthalen-1-yl)carbamate]",30.3,14.4,–
"CC(C)Oc1ccc(-c2ccc3c(c2)C(NC(=O)O[C@@H]2CN4CCC2CC4)CCC3)cc1 (stereo partly drawn) [Example 83, (S)-quinuclidin-3-yl (7-(4-isopropoxyphenyl)-1,2,3,4-tetrahydronaphthalen-1-yl)carbamate]",39.1,386,–
"COc1ccc(-c2ccc3c(c2)CCC(C)(C)C3NC(=O)O[C@@H]2CN3CCC2CC3)c(OC)c1 (stereo partly drawn) [Example 134, (S)-quinuclidin-3-yl (6-(2,4-dimethoxyphenyl)-2,2-dimethyl-1,2,3,4-tetrahydronaphthalen-1-yl)carbamate]",2.95,6.6,–
"CC(C)(C)c1cccc(-c2ccc3c(c2)CCC(C)(C)C3NC(=O)O[C@@H]2CN3CCC2CC3)c1 (stereo partly drawn) [Example 128, (S)-quinuclidin-3-yl (6-(3-(tert-butyl)phenyl)-2,2-dimethyl-1,2,3,4-tetrahydronaphthalen-1-yl)carbamate]",2.84,1.3,–
"COc1ccc(-c2ccc3c(c2)CCC2(CC2)C3NC(=O)O[C@@H]2CN3CCC2CC3)c(Cl)c1 (stereo partly drawn) [Example 200, (S)-quinuclidin-3-yl (6′-(2-chloro-4-methoxyphenyl)-3′,4′-dihydro-1′H-spiro[cyclopropane-1,2′-naphthalen]-1′-yl)carbamate]",8.85,46,–
"O=C(NC1c2cc(-c3ccccc3F)ccc2CCC12CC2)O[C@@H]1CN2CCC1CC2 (stereo partly drawn) [Example 179, (S)-quinuclidin-3-yl (7′-(2-fluorophenyl)-3′,4′-dihydro-1′H-spiro[cyclopropane-1,2′-naphthalen]-1′-yl)carbamate]",10,115,–
"COc1ccc(-c2ccc3c(c2)CCC(C)(C)C3NC(=O)O[C@@H]2CN3CCC2CC3)c(F)c1 (stereo partly drawn) [Example 148, (S)-quinuclidin-3-yl (6-(2-fluoro-4-methoxyphenyl)-2,2-dimethyl-1,2,3,4-tetrahydronaphthalen-1-yl)carbamate]",3.21,4.6,–
"COCCOc1ccccc1-c1ccc2c(c1)CCC1(CC1)C2NC(=O)O[C@@H]1CN2CCC1CC2 (stereo partly drawn) [Example 196, (S)-quinuclidin-3-yl (6′-(2-(2-methoxyethoxy)phenyl)-3′,4′-dihydro-1′H-spiro[cyclopropane-1,2′-naphthalen]-1′-yl)carbamate]",6.02,25.2,–
"COc1ccc(-c2ccc3c(c2)CCC(C)(C)C3NC(=O)O[C@@H]2CN3CCC2CC3)cc1 (stereo partly drawn) [Example 120, (S)-quinuclidin-3-yl (6-(4-methoxyphenyl)-2,2-dimethyl-1,2,3,4-tetrahydronaphthalen-1-yl)carbamate]",5.65,1.83,–
"O=C(NC1CCCc2cc(-c3ccccc3Cl)ccc21)O[C@@H]1CN2CCC1CC2 (stereo partly drawn) [Example 10, (S)-quinuclidin-3-yl (6-(2-chlorophenyl)-1,2,3,4-tetrahydronaphthalen-1-yl)carbamate]",2.56,37.7,–
"COc1ccccc1-c1ccc2c(c1)CCCC2NC(=O)O[C@@H]1CN2CCC1CC2 (stereo partly drawn) [Example 48, (S)-quinuclidin-3-yl (6-(2-methoxyphenyl)-1,2,3,4-tetrahydronaphthalen-1-yl)carbamate]",3.02,362,–
"COCCOc1ccccc1-c1ccc2c(c1)CCC(C)(C)C2NC(=O)O[C@@H]1CN2CCC1CC2 (stereo partly drawn) [Example 112, (S)-quinuclidin-3-yl (6-(2-(2-methoxyethoxy)phenyl)-2,2-dimethyl-1,2,3,4-tetrahydronaphthalen-1-yl)carbamate]",3.75,0.802,–
"O=C(NC1CCCc2cc(-c3cccc(Cl)c3)ccc21)O[C@@H]1CN2CCC1CC2 (stereo partly drawn) [Example 6, (S)-quinuclidin-3-yl (6-(3-chlorophenyl)-1,2,3,4-tetrahydronaphthalen-1-yl)carbamate]",0.697,15.8,–
"CC1(C)CCc2cc(-c3ccc(F)cc3)ccc2C1NC(=O)O[C@@H]1CN2CCC1CC2 (stereo partly drawn) [Example 86, (S)-quinuclidin-3-yl (6-(4-fluorophenyl)-2,2-dimethyl-1,2,3,4-tetrahydronaphthalen-1-yl)carbamate]",2.6,14.2,–
"CC(C)Cc1ccc(-c2cc3c(cc2F)C(NC(=O)O[C@@H]2CN4CCC2CC4)C(C)(C)CC3)cc1 (stereo partly drawn) [Example 230, (S)-quinuclidin-3-yl (7-fluoro-6-(4-isobutylphenyl)-2,2-dimethyl-1,2,3,4-tetrahydronaphthalen-1-yl)carbamate]",0.3,1.8,–
"CCOc1ccc(-c2ccc3c(c2)CCC2(CC2)C3NC(=O)O[C@@H]2CN3CCC2CC3)cc1 (stereo partly drawn) [Example 217, (S)-quinuclidin-3-yl (6′-(4-ethoxyphenyl)-3′,4′-dihydro-1′H-spiro[cyclopropane-1,2′-naphthalen]-1′-yl)carbamate]",1.01,15.8,–
"COc1ccccc1-c1ccc2c(c1)C(NC(=O)O[C@@H]1CN3CCC1CC3)CCC2 (stereo partly drawn) [Example 75, (S)-quinuclidin-3-yl (7-(2-methoxyphenyl)-1,2,3,4-tetrahydronaphthalen-1-yl)carbamate]",22.7,138,–
O=C(NC1CCCc2ccc(-c3cccc(F)c3)cc21)O[C@@H]1CN2CCC1CC2 (stereo partly drawn) [Example 58],10.8,–,73.5
"CC1(C)CCc2ccc(-c3cccc(Cl)c3)cc2C1NC(=O)O[C@@H]1CN2CCC1CC2 (stereo partly drawn) [Example 156, (S)-quinuclidin-3-yl (7-(3-chlorophenyl)-2,2-dimethyl-1,2,3,4-tetrahydronaphthalen-1-yl)carbamate]",19.6,132,–
